In ChEMBL document CHEMBL1201862, “PubChem BioAssay data set” (2004):
Activity calls are given as the source filed them.

Legend:
[1] = target: T1, Oxysterols receptor LXR-beta (Homo sapiens, UniProt P55055); assay: LXR agonists, Gal4 luciferase reporter, dose response, counter-screen for ssDAF-12 agonist project, cell-based, luminescence, HEK293, S. stercoralis campaign (AID 720737); type: functional; settings: read-out: IC50 (the source's name)
T1 sequence (P55055 whole entry): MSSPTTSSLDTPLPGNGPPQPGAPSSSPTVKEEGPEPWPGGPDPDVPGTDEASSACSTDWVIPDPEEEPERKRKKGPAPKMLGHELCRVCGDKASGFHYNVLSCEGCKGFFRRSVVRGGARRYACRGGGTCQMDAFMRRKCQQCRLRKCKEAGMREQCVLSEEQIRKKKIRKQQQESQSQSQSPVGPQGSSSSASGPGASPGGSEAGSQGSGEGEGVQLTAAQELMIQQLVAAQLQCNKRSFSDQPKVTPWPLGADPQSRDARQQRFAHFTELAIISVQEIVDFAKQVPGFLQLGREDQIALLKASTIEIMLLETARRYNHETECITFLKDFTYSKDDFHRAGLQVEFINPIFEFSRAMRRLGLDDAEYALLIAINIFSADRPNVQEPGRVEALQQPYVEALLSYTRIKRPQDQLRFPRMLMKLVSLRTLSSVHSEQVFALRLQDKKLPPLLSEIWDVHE

[2] = Luminescence-based cell-based high throughput dose response assay to identify activators of the DAF-12 from the parasite S. stercoralis (ssDAF-12).; type: functional
[3] = target: 26S proteasome non-ATPase regulatory subunit 14 (Homo sapiens, UniProt O00487); assay: inhibition of proteasome subunit RPN11 – biochemical, fluorescence polarization, uHTS hits, confirmation (AID 602368); type: functional
Prothrombin = Prothrombin (Bos taurus, UniProt P00735); assay: thrombin protease inhibitors – biochemical, fluorescence polarization, uHTS hits, dose response (AID 602369); type: functional
[4] = target: Voltage-gated inwardly rectifying potassium channel KCNH2 (Homo sapiens, UniProt Q12809); assay: concentration-dependent hERG rescue from blockers – cell-based, thallium flux, dose response (AID 2121); type: ADME
[5] = target: 72 kDa type IV collagenase (Homo sapiens, UniProt P08253); assay: Dose Response validation of uHTS RPN11 inhibitor hits using a MMP-2 Fluorescence assay.; type: functional
Melanocortin receptor 4 = Melanocortin receptor 4 (Homo sapiens, UniProt P32245); assay: inhibitors of MC4R cAMP signaling – cell-based, TR-FRET, biased antagonists, dose response (AID 602298); type: functional;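 note: antagonist potency against agonist-stimulated cAMP production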
[6] = microbe, parasite or virus in culture; type: functional; settings: Mycobacterium tuberculosis
[7] = cAMP pathway inhibition in counterscreen cell line – TR-FRET cAMP detection, counter-screen for MC4R biased antagonist project, dose response (AID 602305); type: functional, cell-based;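 note: U2OS cells stimulated with forskolin near its EC80 as the cAMP inducer; potency is for inhibition of forskolin-stimulated cAMP signaling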
Jurkat = assay: blockers of NF-kB activation in T cells – Jurkat, luciferase reporter, luminescence, B- and T-cell, dose response (AID 489004); type: functional, cell-based; settings: Homo sapiens;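 note: NF-kB luciferase reporter Jurkat cells stimulated with PMA plus ionomycin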
[8] = target: T2, COUP transcription factor 2 (Homo sapiens, UniProt P24468); assay: Luminescence-based cell-based high throughput dose response assay to identify inhibitors of COUP-TFII (NR2F2).; type: functional;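 note: HEK293 cells transiently cotransfected with COUP-TFII expression vector and reporter; luciferase reporter luminescence driven by COUP-TFII from the pX2-168 reporter plasmid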
T2 sequence (P24468 whole entry): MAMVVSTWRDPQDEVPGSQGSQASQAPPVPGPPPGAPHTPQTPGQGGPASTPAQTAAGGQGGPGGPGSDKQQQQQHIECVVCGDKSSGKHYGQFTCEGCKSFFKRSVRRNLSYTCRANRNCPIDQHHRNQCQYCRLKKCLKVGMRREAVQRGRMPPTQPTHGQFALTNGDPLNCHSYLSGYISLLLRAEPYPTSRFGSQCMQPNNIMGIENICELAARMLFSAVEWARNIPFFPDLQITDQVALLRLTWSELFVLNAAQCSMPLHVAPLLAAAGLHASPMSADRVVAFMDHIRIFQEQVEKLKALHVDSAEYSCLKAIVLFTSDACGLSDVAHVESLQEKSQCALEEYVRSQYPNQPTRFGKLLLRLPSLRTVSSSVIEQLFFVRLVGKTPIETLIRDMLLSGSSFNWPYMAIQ

[9] = HEK-293T viability loss, compound-treated – cell-based, uHTS hits, cytotoxicity control for B/T-cell NF-kB inhibitor project, dose response (AID 489019); type: functional;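 note: IC50 reflects cytotoxicity as loss of cell viability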
[10] = non-specific 3'UTR reporter inhibition in Clone20-Shn3RL – cell-based, Renilla luciferase, cherry-picked, counter-screen for Shn3 inhibitor project, dose response (AID 624133); type: functional
[11] = general mammalian cell viability loss – inhibitor set, cherry-pick, set 2, cytotoxicity control for miR-122 modulator project, dose response (AID 720697); type: functional, cell-based
[12] = general mammalian cell viability loss – activator set, cherry-pick, cytotoxicity control for miR-122 modulator project, dose response (AID 720690); type: functional, cell-based;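 note: HEK293T human cells scored for general mammalian cytotoxicity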
INS1 = assay: INS-1E survival protection against cytokine death – cell-based, luminescence, retest, dose response (AID 449756); type: functional; settings: Rattus norvegicus;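 note: cell death triggered by IL-1 beta plus TNF-alpha plus IFN-gamma mixture; protective hits raise ATP signal compared with cytokine alone wells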
[13] = HIV-1 AD8 envelope cell-cell fusion blockers – cherry-pick, dose response (AID 652062); type: functional, cell-based;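 note: luciferase signal from cell-cell fusion driven by HIV-1 clade B AD8 Env; potency is for inhibitors of fusion seen as a drop in luminescence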
[14] = reduction of Shn3 3'UTR-driven luciferase in osteoblasts – cell-based, Clone20 osteoblasts, firefly luciferase, cherry-picked, dose response (AID 624132); type: functional;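 note: firefly luciferase luminescence from reporter carrying the Shn3 3'UTR in osteoblasts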
Protein Wnt-3a = Protein Wnt-3a (Mus musculus, UniProt P27467); assay: antagonism of Wnt3a pathway luciferase reporter – Wnt-LIGHT cells, luminescence, selectivity assay for Gli-SUFU antagonist project, dose response (AID 651570); type: functional; settings: read-out: IC50_Mean;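 note: Wnt-LIGHT reporter cells stimulated with conditioned medium from Wnt3a-producing cells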
[15] = loss of viability in HepG2 cells – cell-based, CellTiter-Glo, cherry-picked, cytotoxicity control for Shn3 inhibitor project, dose response (AID 624134); type: functional
[16] = target: Adenosylmethionine-8-amino-7-oxononanoate aminotransferase (Mycobacterium tuberculosis, UniProt P9WQ81); assay: Mycobacterium tuberculosis BioA enzyme inhibitor Measured in Biochemical System Using Plate Reader - 2163-02_Inhibitor_Dose_CherryPick_Activity.; type: functional, Mycobacterium tuberculosis UT205
HEK293 [17] = assay: membrane integrity loss in HEK cells – cell-based, fluorescence, cytotoxicity control for IDE activator project, dose response (AID 588440); type: functional; settings: Homo sapiens;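 note: cytotoxicity by LDH release measuring loss of membrane integrity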
HEK293 [18] = assay: optical interference in Abeta FP readout, dose response, artefact control for IDE activator project, biochemical, fluorescence polarization (AID 588442); type: functional, cell-based; settings: Homo sapiens
Insulin-degrading enzyme [19] = target: T3, Insulin-degrading enzyme (Homo sapiens, UniProt P14735); assay: recombinant IDE activation, cell-free – biochemical, fluorescence polarization, counter-screen for IDE activator project, dose response (AID 588681)
T3 sequence (P14735 whole entry): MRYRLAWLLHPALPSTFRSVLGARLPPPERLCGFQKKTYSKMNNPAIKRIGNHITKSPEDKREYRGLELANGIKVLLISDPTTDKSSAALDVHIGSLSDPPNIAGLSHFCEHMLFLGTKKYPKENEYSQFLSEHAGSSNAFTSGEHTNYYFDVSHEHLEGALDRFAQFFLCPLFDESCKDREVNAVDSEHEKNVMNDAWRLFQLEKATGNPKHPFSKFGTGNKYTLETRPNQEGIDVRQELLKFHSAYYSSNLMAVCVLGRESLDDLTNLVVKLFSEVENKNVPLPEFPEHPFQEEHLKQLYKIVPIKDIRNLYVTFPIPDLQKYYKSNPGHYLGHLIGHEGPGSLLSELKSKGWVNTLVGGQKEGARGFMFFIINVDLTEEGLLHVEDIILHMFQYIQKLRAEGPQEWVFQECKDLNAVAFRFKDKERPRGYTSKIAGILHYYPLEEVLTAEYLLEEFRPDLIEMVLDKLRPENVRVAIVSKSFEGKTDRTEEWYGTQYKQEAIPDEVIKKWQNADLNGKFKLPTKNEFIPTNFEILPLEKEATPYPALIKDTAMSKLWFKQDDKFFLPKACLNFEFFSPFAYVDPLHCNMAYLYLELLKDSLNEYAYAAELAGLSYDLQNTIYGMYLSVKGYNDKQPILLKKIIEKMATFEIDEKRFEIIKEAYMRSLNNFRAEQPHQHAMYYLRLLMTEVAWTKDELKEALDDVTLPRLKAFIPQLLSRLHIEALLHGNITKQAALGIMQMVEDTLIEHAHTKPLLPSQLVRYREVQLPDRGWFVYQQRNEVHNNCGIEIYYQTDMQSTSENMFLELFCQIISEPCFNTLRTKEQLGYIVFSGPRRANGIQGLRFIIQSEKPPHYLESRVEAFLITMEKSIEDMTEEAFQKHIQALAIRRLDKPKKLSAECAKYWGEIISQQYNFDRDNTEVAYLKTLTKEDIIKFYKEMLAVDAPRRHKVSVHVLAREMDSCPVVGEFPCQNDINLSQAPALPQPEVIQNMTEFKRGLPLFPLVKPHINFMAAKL

Insulin-degrading enzyme [20] = target: T3, Insulin-degrading enzyme; assay: cellular IDE activation of Abeta substrate cleavage – fluorescence polarization, HEK cells, dose response (AID 588439); type: functional, cell-based
Coagulation factor XII = target: T4, Coagulation factor XII (Homo sapiens, UniProt P00748); type: functional;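 note: activated factor XIIa alpha cleaving a fluorogenic AMC peptide substrate; inhibitor potency from loss of enzyme activity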
T4 sequence (P00748 whole entry): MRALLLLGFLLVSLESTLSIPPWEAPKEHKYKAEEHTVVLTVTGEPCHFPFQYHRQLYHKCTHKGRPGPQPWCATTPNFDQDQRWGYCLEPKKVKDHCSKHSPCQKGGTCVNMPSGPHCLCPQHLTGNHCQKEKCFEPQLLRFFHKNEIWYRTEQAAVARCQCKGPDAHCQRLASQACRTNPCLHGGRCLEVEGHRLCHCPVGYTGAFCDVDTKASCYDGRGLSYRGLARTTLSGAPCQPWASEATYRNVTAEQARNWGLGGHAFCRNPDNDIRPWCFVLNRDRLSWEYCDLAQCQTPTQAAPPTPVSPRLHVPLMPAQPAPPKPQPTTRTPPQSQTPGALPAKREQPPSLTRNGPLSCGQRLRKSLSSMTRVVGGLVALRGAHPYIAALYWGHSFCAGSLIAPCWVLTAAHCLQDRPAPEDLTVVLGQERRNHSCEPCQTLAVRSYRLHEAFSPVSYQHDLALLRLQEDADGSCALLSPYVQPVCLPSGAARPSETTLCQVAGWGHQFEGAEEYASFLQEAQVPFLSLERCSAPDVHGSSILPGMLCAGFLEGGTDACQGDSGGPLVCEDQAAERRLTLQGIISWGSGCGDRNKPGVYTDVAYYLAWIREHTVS

[21] = blockers of CAL PDZ–TMR peptide complex – biochemical, fluorescence polarization, untagged CAL PDZ, cherry-pick, set 2, dose response (AID 602254); type: functional
Interleukin-8 = Interleukin-8 (Homo sapiens, UniProt P10145); assay: Dose Response confirmation of uHTS small molecule hits for cystic fibrosis induced NFkb Inhibitors in a PAF-induced IL8 counterscreen.; type: functional; settings: read-out: IC50_Mean
[22] = viability of uninfected HEp-2 cells – cell-based, HTS, cytotoxicity control for RSV inhibitor project, dose response (AID 2410); type: functional; settings: human respiratory syncytial virus

Sequence of Melanocortin receptor 4 (P32245 whole entry): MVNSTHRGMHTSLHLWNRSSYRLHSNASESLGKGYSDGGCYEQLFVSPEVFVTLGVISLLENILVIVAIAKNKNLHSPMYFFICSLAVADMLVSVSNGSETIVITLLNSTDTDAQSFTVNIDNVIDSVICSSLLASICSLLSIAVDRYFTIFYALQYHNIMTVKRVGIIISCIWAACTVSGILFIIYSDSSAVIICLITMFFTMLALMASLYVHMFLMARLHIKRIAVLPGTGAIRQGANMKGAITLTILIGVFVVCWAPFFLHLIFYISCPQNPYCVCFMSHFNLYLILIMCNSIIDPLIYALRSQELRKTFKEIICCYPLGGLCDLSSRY
Sequence of Voltage-gated inwardly rectifying potassium channel KCNH2 (Q12809 whole entry): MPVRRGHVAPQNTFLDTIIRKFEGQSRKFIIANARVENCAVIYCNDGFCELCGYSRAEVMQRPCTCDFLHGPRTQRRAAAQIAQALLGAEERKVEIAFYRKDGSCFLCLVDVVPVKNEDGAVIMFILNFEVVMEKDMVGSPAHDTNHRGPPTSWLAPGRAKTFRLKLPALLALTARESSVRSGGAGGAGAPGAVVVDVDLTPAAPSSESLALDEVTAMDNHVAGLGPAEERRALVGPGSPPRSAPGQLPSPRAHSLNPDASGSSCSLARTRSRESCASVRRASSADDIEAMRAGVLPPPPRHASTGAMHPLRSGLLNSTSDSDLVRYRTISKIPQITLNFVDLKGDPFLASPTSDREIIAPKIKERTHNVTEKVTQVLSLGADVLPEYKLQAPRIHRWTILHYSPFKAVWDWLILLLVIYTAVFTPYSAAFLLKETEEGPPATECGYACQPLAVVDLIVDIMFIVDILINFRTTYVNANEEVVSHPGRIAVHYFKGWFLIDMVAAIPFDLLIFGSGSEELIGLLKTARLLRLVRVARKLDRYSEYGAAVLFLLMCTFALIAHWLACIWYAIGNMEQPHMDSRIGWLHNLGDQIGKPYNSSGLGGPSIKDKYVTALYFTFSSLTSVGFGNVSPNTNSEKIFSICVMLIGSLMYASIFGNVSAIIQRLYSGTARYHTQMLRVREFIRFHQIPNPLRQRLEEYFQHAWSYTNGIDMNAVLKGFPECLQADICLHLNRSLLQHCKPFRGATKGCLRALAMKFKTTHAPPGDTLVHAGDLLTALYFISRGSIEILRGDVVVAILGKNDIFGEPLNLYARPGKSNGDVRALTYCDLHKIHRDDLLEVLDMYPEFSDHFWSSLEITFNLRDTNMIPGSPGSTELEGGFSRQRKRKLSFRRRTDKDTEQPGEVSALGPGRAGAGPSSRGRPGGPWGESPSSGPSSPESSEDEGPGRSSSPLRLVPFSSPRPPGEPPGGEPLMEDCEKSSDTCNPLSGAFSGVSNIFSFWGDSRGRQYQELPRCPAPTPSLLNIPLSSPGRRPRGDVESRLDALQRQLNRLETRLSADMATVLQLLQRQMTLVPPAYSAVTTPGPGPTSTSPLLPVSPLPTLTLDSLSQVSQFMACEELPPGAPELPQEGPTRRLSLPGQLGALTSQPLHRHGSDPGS
Sequence of Adenosylmethionine-8-amino-7-oxononanoate aminotransferase (P9WQ81 whole entry): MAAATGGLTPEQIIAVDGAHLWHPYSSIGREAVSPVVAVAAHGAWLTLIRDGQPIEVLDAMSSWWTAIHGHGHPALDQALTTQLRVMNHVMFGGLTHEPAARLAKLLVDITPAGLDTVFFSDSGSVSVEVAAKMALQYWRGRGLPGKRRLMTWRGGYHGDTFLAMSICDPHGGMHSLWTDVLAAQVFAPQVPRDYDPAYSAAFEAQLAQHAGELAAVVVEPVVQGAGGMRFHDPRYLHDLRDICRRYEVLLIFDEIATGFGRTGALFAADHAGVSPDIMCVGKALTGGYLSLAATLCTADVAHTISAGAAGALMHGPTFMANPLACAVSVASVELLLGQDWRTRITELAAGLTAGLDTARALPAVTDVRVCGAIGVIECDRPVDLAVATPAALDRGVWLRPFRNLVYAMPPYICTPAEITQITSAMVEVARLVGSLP
Sequence of 26S proteasome non-ATPase regulatory subunit 14 (O00487 whole entry): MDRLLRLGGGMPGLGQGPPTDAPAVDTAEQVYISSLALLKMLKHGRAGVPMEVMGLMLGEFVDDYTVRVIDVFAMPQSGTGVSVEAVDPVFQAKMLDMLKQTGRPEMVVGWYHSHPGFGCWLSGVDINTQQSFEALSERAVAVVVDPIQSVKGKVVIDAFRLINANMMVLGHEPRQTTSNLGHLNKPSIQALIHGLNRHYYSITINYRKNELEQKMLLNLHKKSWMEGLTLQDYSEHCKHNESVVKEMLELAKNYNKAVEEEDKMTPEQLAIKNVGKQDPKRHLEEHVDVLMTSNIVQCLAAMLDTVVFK
Sequence of 72 kDa type IV collagenase (P08253 whole entry): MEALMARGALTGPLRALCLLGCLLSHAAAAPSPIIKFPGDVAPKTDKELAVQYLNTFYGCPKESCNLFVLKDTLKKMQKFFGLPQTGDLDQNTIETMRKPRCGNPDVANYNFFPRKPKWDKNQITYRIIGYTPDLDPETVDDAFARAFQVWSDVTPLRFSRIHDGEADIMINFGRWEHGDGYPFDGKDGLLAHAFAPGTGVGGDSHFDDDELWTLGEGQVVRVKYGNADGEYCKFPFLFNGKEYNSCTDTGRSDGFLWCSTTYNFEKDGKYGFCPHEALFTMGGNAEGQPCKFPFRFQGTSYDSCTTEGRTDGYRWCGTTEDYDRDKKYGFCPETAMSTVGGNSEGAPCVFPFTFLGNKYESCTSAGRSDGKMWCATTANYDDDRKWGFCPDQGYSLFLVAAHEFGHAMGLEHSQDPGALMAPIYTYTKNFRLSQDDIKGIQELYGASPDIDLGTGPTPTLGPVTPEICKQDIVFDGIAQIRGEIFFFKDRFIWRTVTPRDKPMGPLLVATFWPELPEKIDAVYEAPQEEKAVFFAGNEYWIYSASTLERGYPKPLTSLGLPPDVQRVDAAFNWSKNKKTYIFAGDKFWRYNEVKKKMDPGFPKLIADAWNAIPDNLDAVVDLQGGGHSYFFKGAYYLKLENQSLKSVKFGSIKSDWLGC
Sequence of Interleukin-8 (P10145 whole entry): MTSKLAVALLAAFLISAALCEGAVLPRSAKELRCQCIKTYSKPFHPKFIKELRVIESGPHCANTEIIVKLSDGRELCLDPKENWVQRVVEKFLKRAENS
Sequence of Protein Wnt-3a (P27467 whole entry): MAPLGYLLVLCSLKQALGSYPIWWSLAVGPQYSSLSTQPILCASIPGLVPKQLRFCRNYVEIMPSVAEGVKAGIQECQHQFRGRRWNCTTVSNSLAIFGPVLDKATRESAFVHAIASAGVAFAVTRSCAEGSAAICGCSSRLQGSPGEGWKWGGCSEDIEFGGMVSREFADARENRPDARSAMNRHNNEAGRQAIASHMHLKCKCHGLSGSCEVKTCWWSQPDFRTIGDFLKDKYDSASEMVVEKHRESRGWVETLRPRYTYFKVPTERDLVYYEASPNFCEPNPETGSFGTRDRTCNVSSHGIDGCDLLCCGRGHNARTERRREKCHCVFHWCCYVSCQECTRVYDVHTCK

For `O=C(CSc1nc2cc(Cl)ccc2s1)c1cc2ccccc2o1`, the EC50 [1] was > 67.5 µM (inactive), the IC50 [2] was > 67.5 µM (inactive) and the IC50 [3] was 24.5 µM (active). For the same compound, the IC50 (Prothrombin) was 28.5 µM (active), the EC50 [4] was 0.35 µM (active) and the IC50 [5] was 18.8 µM (active).
In the case of `COc1cc2c(cc1NC(=O)CN1C(=O)NC3(CCc4ccccc43)C1=O)oc1ccccc12` (configuration not stated), the IC50 (Melanocortin receptor 4) is reported as > 64.6 µM (inactive), the CC50 [6] is reported as 23.6 µM (active) and the IC50 [7] is reported as > 64.6 µM (inactive).
With `Cc1ccc(OCCN2CCN(c3ncnc4sc(C)c(C)c34)CC2)cc1` the IC50 (Jurkat) was > 80 µM (inactive), the IC50 [8] was 4.98 µM (active) and the CC50 [6] was > 40 µM (active). For the same compound, the IC50 [9] was > 80 µM (inactive), the AC50 [10] was 2.05 µM (active) and the AC50 [11] was 13.6 µM (active). For the same compound, the AC50 [12] was 33.6 µM (active), the AC50 (INS1) was 2.36 µM (active) and the AC50 [13] was 1.78 µM (active). For the same compound, the AC50 [14] was 0.754 µM (active), the IC50 (Protein Wnt-3a) was 0.282 µM (active) and the AC50 [15] was 1.5 µM (active).
With `Cc1cccc(C2c3[nH]c4ccccc4c3CCN2C(=O)CN2CCOC2=O)n1` (configuration not stated) the AC50 [16] was 7.05 µM (active).
In the case of `COc1ccc(C(=O)N/N=C/c2cc3ccccc3nc2O)cc1`, the IC50 (HEK293 [17]) is reported as > 89.1 µM (inactive), the EC50 (HEK293 [18]) is reported as > 55.9 µM (inactive) and the EC50 (Insulin-degrading enzyme [19]) is reported as > 54.7 µM (inactive). For the same compound, the EC50 (Insulin-degrading enzyme [20]) was > 54.7 µM (inactive) and the IC50 (Coagulation factor XII) was > 50 µM (inactive).
In the case of `CC(C)(C)c1ccc(/C=N/N2CCN(c3ccccn3)CC2)cc1`, the AC50 [21] is reported as 91.5 µM (active).
In the case of `CC(=N)C1=C(O)C2(C)C(=CC1=O)Oc1c(C(C)=O)c(O)c(C)c(O)c12` (configuration not stated), the IC50 (Melanocortin receptor 4) is reported as > 64.6 µM (inactive) and the IC50 [7] is reported as > 64.6 µM (inactive).
For `CC(C)C[C@H](CO)Nc1nc(Nc2cccc(Cl)c2)c2ncn(C(C)C)c2n1`, the IC50 (Interleukin-8) was 5.97 µM (active) and the CC50 [22] was 44.4 µM (active).
